Data as given in PubChem BioAssay (NCI).
Where “and” joins values, the source holds several entries; their conditions need not be identical. Equal values may be shown once.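 96-well plates; 48 h exposure; 5 concentrations. Endpoints by linear interpolation between flanking doses. Not reached: highest tested concentration assigned. At the GI50, growth is halved. TGI marks complete inhibition of growth.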

Columns and labels:
Assay in all cases: DTP human tumour cell line panel, 48 h
SNB-75 CNS = tested on: SNB-75 CNS
786-0 renal = tested on: 786-0 renal
PC-3 prostate = tested on: PC-3 prostate
NCI-H226 lung = tested on: NCI-H226 lung
NCI/ADR-RES ovarian = tested on: NCI/ADR-RES ovarian
EKVX NSCLC = tested on: EKVX NSCLC
IGROV1 ovarian = tested on: IGROV1 ovarian
T-47D breast = tested on: T-47D breast
SW-620 colon = tested on: SW-620 colon
LOX IMVI melanoma = tested on: LOX IMVI melanoma

| SMILES | GI50 (SNB-75 CNS) [nM] | TGI (SNB-75 CNS) | GI50 (786-0 renal) [µM] | TGI (786-0 renal) | GI50 (PC-3 prostate) | TGI (PC-3 prostate) [µM] | GI50 (NCI-H226 lung) [µM] | TGI (NCI-H226 lung) [µM] | GI50 (NCI/ADR-RES ovarian) | GI50 (EKVX NSCLC) | TGI (EKVX NSCLC) | GI50 (IGROV1 ovarian) [µM] | TGI (IGROV1 ovarian) | GI50 (T-47D breast) [nM] | TGI (T-47D breast) [µM] | GI50 (SW-620 colon) [nM] | TGI (SW-620 colon) | GI50 (LOX IMVI melanoma) [nM] | TGI (LOX IMVI melanoma) | TGI (NCI/ADR-RES ovarian) [µM] |
| --- | --- | --- | --- | --- | --- | --- | --- | --- | --- | --- | --- | --- | --- | --- | --- | --- | --- | --- | --- | --- |
| CCOC(=O)[C@@H](C)C[C@H](Cc1ccccc1)NC(=O)c1csc([C@@H](C[C@H](C(C)C)N(C)C(=O)[C@@H](NC(=O)[C@H]2CCCCN2C)C(C)(C)CC)OC(C)=O)n1 | < 1.67 | 13.9 µM | < 0.00167 | 4.86 µM | < 1.67 nM | > 16.7 | < 0.00167 | 0.0336 | 0.00891 µM | 2.32 nM | > 16.7 µM | 0.0021 | > 16.7 µM | < 1.67 | > 16.7 | < 1.67 | > 16.7 µM | < 1.67 | 6.08 µM |  |
| C#Cc1cccc(Nc2ncnc3cc(NC(=O)CCl)ccc23)c1 | 1530 | 5.01 µM | 1.07 | 5.53 µM | 3690 nM | 8.33 | 4.72 | 11.6 | 4.65 µM | 2500 nM | 7.01 µM | 1.43 | 6.84 µM | 2430 | 5.93 | 832 | 3.08 µM | 740 | 2.97 µM | 17.2 |
| CSC1=NC(=Nc2c(C)cccc2C)C2(CCC(C(C)(C)C)CC2)N1c1ccc(Cl)cc1 (stereo not given) | > 100000 | > 100 µM | 68.7 | > 100 µM | 6050 nM | > 100 | 8.93 | > 100 | 77.7 µM |  |  | 63.5 | > 100 µM | 20800 | > 100 | 27000 | > 100 µM | 6660 | > 100 µM | > 100 |
| COC(=O)NC1C(C)OC(OC2C/C=C(/C)C3C=CC4C(OC5CC(OC6CCC(OC7CC(O)C(OC8CCC(O)C(C)O8)C(C)O7)C(C)O6)C(OC(C)=O)C(C)O5)C(C)CC(C)C4C3(C)/C(O)=C3/C(=O)OC4(CC(C=O)=CC(O)C4/C=C\2C)C3=O)CC1(C)[N+](=O)[O-] (stereo not given) | 1060 | 5.14 µM and 3.27 µM | 0.21 | 2.2 µM and 0.518 µM |  | 7.29 |  | 2.72 |  | 367 nM | 5.49 µM and 0.864 µM | 1.47 | 8.43 µM and 3.15 µM |  | 10.2 | 212 | 4.74 µM and 1.11 µM | 281 | 1.32 µM and 0.808 µM | 26.3 |
| Cc1ccccc1N=Nc1c(O)ccc2ccccc12 |  | > 100 µM |  | > 100 µM |  | > 100 |  | > 100 |  |  | > 100 µM |  | > 100 µM |  | > 100 |  | > 100 µM |  | > 100 µM | > 100 |
| C=C1C[C@H]2C=Nc3cc(OCCCOc4cc5c(cc4OC)C(=O)N4CC(=C)C[C@H]4C=N5)c(OC)cc3C(=O)N2C1 | 1.78 | 0.0145 µM and < 0.0155 µM | 0.00125 |  | 21.2 nM and < 13.8 nM | 3.13 |  | 0.0482 | 0.317 µM and 0.0972 µM | 66.5 nM and 18.2 nM |  |  | 0.0341 µM | 24.4 | 3.53 | 14.4 | > 85.2 µM |  |  | 2.84 |
| O=C1NC(=NCc2ccccc2Cl)S/C1=C\c1ccc2ncccc2c1 | 785 | > 21.8 µM | 16.3 | > 25 µM | > 25000 nM | > 25 | > 18.3 | > 25 | > 25 µM |  |  | 9.01 | > 25 µM | > 25000 | > 25 | 6610 | > 25 µM | 8860 | > 25 µM | > 25 |
| O=C(O)C1=C/C(=C(/c2ccccc2)c2cc(C(=O)O)c(O)c3ccccc23)c2ccccc2C1=O |  | > 100 µM |  | > 100 µM |  | > 100 |  | > 100 |  |  | > 100 µM |  | > 100 µM |  | > 100 |  | > 100 µM |  |  | > 100 |
| O=C1Nc2ccc(Br)cc2C12CC(c1ccccc1)=NN2 (stereo not given) | 1350 | 6.91 µM | 5.66 | 48.5 µM | 2280 nM | 18.4 | 6.93 | > 100 | 3.89 µM |  |  | 3.51 | 29.3 µM | 5480 | > 100 | 3870 | 23.8 µM | 7210 | 22.9 µM | 35.8 |
| Cc1ccc(CNc2ccc(Br)cc2)cc1 |  | > 100 µM |  | > 100 µM |  | > 100 |  | > 100 |  |  | > 100 µM |  |  |  | > 100 |  | > 100 µM |  | > 100 µM | > 100 |
| CC(C)(C)c1cc(C(=O)Nc2ccccc2C(=O)NCCN)cc(C(C)(C)C)c1 | 1680 | 5.08 µM | 1.75 | 3.51 µM | 1790 nM | 3.5 | 1.96 | 3.74 | 1.93 µM | 1760 nM | 3.96 µM |  |  | 1760 | 3.51 | 1870 | 3.87 µM | 1530 | 2.98 µM | 3.89 |
| O=C1NC(=NCCc2ccc(F)cc2)S/C1=C\c1ccc2ncccc2c1 | > 25000 | > 25 µM | > 25 | > 25 µM | > 25000 nM | > 25 | > 25 | > 25 | > 25 µM |  |  | > 25 | > 25 µM | > 25000 | > 25 | > 23300 | > 25 µM | > 25000 | > 25 µM | > 25 |
| CC(=O)Nc1ccc(C(=O)CCl)cc1 | 3460 | 16 µM | 4.41 | 15.2 µM | 10000 nM | 22.3 | 16.9 | 42.6 | 14.7 µM |  |  | 14.8 | 31 µM | 2680 | 7.33 | 1730 | 3.38 µM | 1930 | 4.17 µM | 43.5 |
